Test results from ChEMBL document CHEMBL5154705, “Discovery and mechanistic study of thiazole-4-acylsulfonamide derivatives as potent and orally active ChemR23 inhibitors with a long-acting effect in cynomolgus monkeys” (Bioorg Med Chem, 2022).

Columns and labels:
[1] = Drug concentration in cynomolgus monkey plasma at 1 mg/kg, po after 8 hrs; format: ADME, organism-based, Macaca fascicularis
[2] = Cmax in cynomolgus monkey at 1 mg/kg, po; format: ADME, organism-based, Macaca fascicularis; design: dose 1 mg/kg, route po; conditions: in vivo
[3] = AUC(0 to infinity) in cynomolgus monkey at 1 mg/kg, po; format: ADME, organism-based, Macaca fascicularis; design: time infinity, dose 1 mg/kg, route po; conditions: in vivo
[4] = target: T1, Chemerin-like receptor 1 (Homo sapiens) (UniProt Q99788); conditions: CAL1
T1 sequence (whole entry): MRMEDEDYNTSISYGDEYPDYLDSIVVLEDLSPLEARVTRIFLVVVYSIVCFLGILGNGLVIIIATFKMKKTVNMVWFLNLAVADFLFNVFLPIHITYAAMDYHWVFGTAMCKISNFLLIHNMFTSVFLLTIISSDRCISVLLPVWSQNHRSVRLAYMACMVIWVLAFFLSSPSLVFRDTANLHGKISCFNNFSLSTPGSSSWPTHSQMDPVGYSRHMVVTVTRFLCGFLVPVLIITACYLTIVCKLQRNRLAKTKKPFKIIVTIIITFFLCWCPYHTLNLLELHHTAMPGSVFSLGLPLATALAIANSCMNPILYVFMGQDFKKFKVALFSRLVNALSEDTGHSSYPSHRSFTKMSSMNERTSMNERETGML

[5] = Half life in cynomolgus monkey at 0.3 to 1 mg/kg, po; format: ADME, organism-based, Macaca fascicularis; conditions: in vivo, dose 0.3-1 mg/kg
[6] = AUC(0 to infinity) in cynomolgus monkey at 0.3 to 1 mg/kg, po; format: ADME, organism-based, Macaca fascicularis; design: route po; conditions: in vivo, dose 0.3-1 mg/kg
[7] = MRT in cynomolgus monkey at 0.3 to 1 mg/kg, po; format: ADME, organism-based, Macaca fascicularis; conditions: in vivo, dose 0.3-1 mg/kg
[8] = Cmax in cynomolgus monkey at 0.3 to 1 mg/kg, po; format: ADME, organism-based, Macaca fascicularis; design: route po; conditions: in vivo, dose 0.3-1 mg/kg
[9] = Tmax in cynomolgus monkey at 0.3 to 1 mg/kg, po; format: ADME, organism-based, Macaca fascicularis; conditions: in vivo, dose 0.3-1 mg/kg
[10] = Cmax in cynomolgus monkey at 0.3 mg/kg, po; format: ADME, organism-based, Macaca fascicularis; design: dose 0.3 mg/kg, route po; conditions: in vivo
[11] = Tmax in cynomolgus monkey at 0.3 mg/kg, po; format: ADME, organism-based, Macaca fascicularis; conditions: in vivo
[12] = AUC(0 to infinity) in cynomolgus monkey at 0.3 mg/kg, po; format: ADME, organism-based, Macaca fascicularis; design: time infinity, dose 0.3 mg/kg, route po; conditions: in vivo
[13] = Half life in cynomolgus monkey at 0.3 mg/kg, po; format: ADME, organism-based, Macaca fascicularis; conditions: in vivo
[14] = Drug concentration in cynomolgus monkey plasma at 0.3 mg/kg, po after 8 hrs; format: ADME, organism-based, Macaca fascicularis
[15] = MRT in cynomolgus monkey at 0.3 mg/kg, po; format: ADME, organism-based, Macaca fascicularis; conditions: in vivo
[16] = Half life in cynomolgus monkey at 1 mg/kg, po; format: ADME, organism-based, Macaca fascicularis; conditions: in vivo
[17] = Tmax in cynomolgus monkey at 1 mg/kg, po; format: ADME, organism-based, Macaca fascicularis; conditions: in vivo
[18] = MRT in cynomolgus monkey at 1 mg/kg, po; format: ADME, organism-based, Macaca fascicularis; conditions: in vivo
[19] = target: T2, Chemerin-like receptor 1 (Homo sapiens, UniProt Q99788); experiment: Inhibition of human ChemR23 expressed in CAL-1 cells assessed as reduction in chemerin-induced calcium signaling; format: functional, cell-based, CAL1
T2 sequence (Q99788 whole entry): T1 sequence (whole entry)

[20] = target: T2, Chemerin-like receptor 1; experiment: Inhibition of human ChemR23 expressed in CAL-1 cells assessed as receptor internalization; format: functional, cell-based, CAL1

Compound: CCS(=O)(=O)NC(=O)c1nc(N(CC2CC2)[C@H](C)c2ccc(-c3cc(Cl)ccc3-c3nc(=O)o[nH]3)cc2)sc1C
- concentration at 8 h [1]: 14 ng/mL
- Cmax [2]: 716 ng/mL
- AUC(0-inf) [3]: 2170 ng·h/mL

Compound: Cc1sc(N(CC2CC2)[C@H](C)c2ccc(-c3cc(Cl)ccc3-c3nc(=O)o[nH]3)cc2)nc1C(=O)NS(C)(=O)=O
- concentration at 8 h [1]: 4.2 ng/mL
- Cmax [2]: 216 ng/mL
- AUC(0-inf) [3]: 726 ng·h/mL

Compound: Cc1ccc(-c2nc(=O)o[nH]2)c(-c2ccc([C@@H](C)N(CC3CC3)c3nc(C(=O)NS(=O)(=O)C4CC4)c(-c4ccsc4)s3)cc2)c1
- IC80 [4]: > 330 nM

Compound: Cc1sc(N(CC2CC2)[C@H](C)c2ccc(-c3cc(Cl)ccc3-c3nc(=O)o[nH]3)cc2)nc1C(=O)NS(=O)(=O)C1(C)CC1
- IC80 [4]: 110 nM

Compound: COc1cccc(-c2sc(N(CC3CC3)[C@H](C)c3ccc(-c4cc(C)ccc4-c4nc(=O)o[nH]4)cc3)nc2C(=O)NS(=O)(=O)C2CC2)c1
- IC80 [4]: 42 nM

Compound: COCCc1sc(N(CC2CC2)[C@H](C)c2ccc(-c3cc(C)ccc3-c3nc(=O)o[nH]3)cc2)nc1C(=O)NS(=O)(=O)C1CC1
- concentration at 8 h [1]: 274 ng/mL
- half-life [5]: 2.6 h
- AUC(0-inf) [6]: 12800 ng·h/mL
- MRT [7]: 4.2 h
- IC80 [4]: 33 nM
- Cmax [8]: 3530 ng/mL
- Tmax [9]: 2.7 h

Compound: Cc1ccc(-c2nc(=O)o[nH]2)c(-c2ccc([C@@H](C)N(CC3CC3)c3nc(C(=O)NS(=O)(=O)C4CC4)c(C)s3)cc2)c1
- concentration at 8 h [1]: 233 ng/mL
- half-life [5]: 2.1 h
- AUC(0-inf) [6]: 12500 ng·h/mL
- MRT [7]: 4.2 h
- IC80 [4]: 53 nM
- Cmax [8]: 3180 ng/mL
- Tmax [9]: 3.3 h

Compound: Cc1ccc(-c2nc(=O)o[nH]2)c(-c2ccc([C@@H](C)N(CC3CC3)c3nc(C(=O)NS(=O)(=O)C4CC4)c(-c4ccccc4)s3)cc2)c1
- IC80 [4]: > 330 nM

Compound: CNC(=O)c1ccc(Cl)cc1-c1ccc([C@@H](C)N(CC2CC2)c2nc(C(=O)NS(=O)(=O)C3CC3)c(C3CC3)s2)cc1
- Cmax [10]: 897 ng/mL
- Tmax [11]: 4 h
- AUC(0-inf) [12]: 8720 ng·h/mL
- half-life [13]: 3.6 h
- concentration at 8 h [14]: 453 ng/mL
- IC80 [4]: 9 nM
- MRT [15]: 6.4 h

Compound: Cc1ccc(-c2nc(=O)o[nH]2)c(-c2ccc([C@@H](C)N(CC3CC3)c3nc(C(=O)NS(=O)(=O)C4CC4)c(C4CCC4)s3)cc2)c1
- concentration at 8 h [1]: 2600 ng/mL
- half-life [5]: 2.8 h
- AUC(0-inf) [6]: 55800 ng·h/mL
- MRT [7]: 5.7 h
- IC80 [4]: 130 nM
- Cmax [8]: 7910 ng/mL
- Tmax [9]: 2.7 h

Compound: Cc1sc(N(CC2CC2)[C@H](C)c2ccc(-c3cc(Cl)ccc3-c3nc(=O)o[nH]3)cc2)nc1C(=O)NS(=O)(=O)C1CCCC1
- concentration at 8 h [1]: 10 ng/mL
- Cmax [2]: 722 ng/mL
- IC80 [4]: 66 nM
- AUC(0-inf) [3]: 1730 ng·h/mL

Compound: Cc1ccc(-c2nc(=O)o[nH]2)c(-c2ccc([C@@H](C)N(CC3CC3)c3nc(C(=O)NS(=O)(=O)C4CC4)c(CC(C)C)s3)cc2)c1
- concentration at 8 h [1]: 772 ng/mL
- half-life [5]: 2.3 h
- AUC(0-inf) [6]: 21900 ng·h/mL
- MRT [7]: 4.9 h
- IC80 [4]: 42 nM
- Cmax [8]: 4250 ng/mL
- Tmax [9]: 2.7 h

Compound: CONC(=O)c1ccc(C)cc1-c1ccc([C@@H](C)N(CC2CC2)c2nc(C(=O)NS(=O)(=O)C3CC3)c(C3CC3)s2)cc1
- concentration at 8 h [1]: 1010 ng/mL
- Cmax [2]: 3480 ng/mL
- IC80 [4]: 38 nM
- half-life [16]: 2.9 h
- Tmax [17]: 3.3 h
- AUC(0-inf) [3]: 24000 ng·h/mL
- MRT [18]: 5.9 h

Compound: CONC(=O)c1ccc(Cl)cc1-c1ccc([C@@H](C)N(CC2CC2)c2nc(C(=O)NS(=O)(=O)C3CC3)c(C3CC3)s2)cc1
- Cmax [10]: 484 ng/mL
- Tmax [11]: 2.7 h
- AUC(0-inf) [12]: 3290 ng·h/mL
- half-life [13]: 3.3 h
- concentration at 8 h [14]: 116 ng/mL
- MRT [15]: 5.3 h

Compound: CCNC(=O)CCC(=O)N1Cc2ccccc2-c2nnn(CCOCCOCCOCCOCCOCCOCCNC(=O)c3ccc(Cl)cc3-c3ccc([C@@H](C)N(CC4CC4)c4nc(C(=O)NS(=O)(=O)C5CC5)c(C5CC5)s4)cc3)c2-c2ccccc21
- IC50 [19]: 9.1 nM

Compound: C[C@H](c1ccc(-c2cc(Cl)ccc2C(=O)NCCOCCOCCOCCOCCOCCOCCOCCOCCOCCOCCOCCOCCOCCOCCOCCOCCOCCOCCOCOCCOCCOCCOCCN=[N+]=[N-])cc1)N(CC1CC1)c1nc(C(=O)NS(=O)(=O)C2CC2)c(C2CC2)s1
- IC50 [19]: 100 nM
- EC50 [20]: 380 nM

Compound: CCCc1sc(N(CC2CC2)[C@H](C)c2ccc(-c3cc(C)ccc3-c3nc(=O)o[nH]3)cc2)nc1C(=O)NS(=O)(=O)C1CC1
- IC80 [4]: 25 nM
